# Where no end group is shown, it is not given here.
# Legend:
# Type in all cases: cell-based
# [1] = test system: primary cultured SD fetal rat cortical neurons after OGD damage; assay: OGD damage of cortical neurons, ROS content (reactive oxygen detection kit); details: OGD 2 h, 24 h reoxygenation; ABPPk2 8, 40, 200 ng/ml; obvious dose-effect relationship
# Experimental: The suspension was filtered with a 400-mesh screen, centrifuged at 1000 rpm for 5 min, and blown to form the single cell suspension. DMEM high glucose complete medium (containing 10% fetal bovine serum) was inoculated in a culture dish or culture plate pre-coated with polylysine (PLL) to culture in 5% CO2 incubator with saturated humidity at 37° C. After the cells were cultured for 4 h to adhere to the wall, the cells were cultured with neuron culture medium (neurobasal+2% B27) for 3 d to observe the growth of neurons. The culture medium containing cytarabine (the final concentration of cytarabine was 2.5 μg/ml) was substituted with half quantity to culture for 3d to inhibit the growth of glial cells and miscellaneous cells to obtain purely cultured primary cortical nerve cells. The purity of the cortical neurons was identified by immunocytochemical staining as more than 90%. […]
# (6) Effect of ABPPk2 on ROS content of cortical neurons after OGD damage: cortical neurons were inoculated in a 6-well plate at 1×10^6 cells/ml; 2 ml of cell suspension was added to each well; and the cortical neurons were cultured to the 7th day. […] The effect of ABPPk2 on the ROS content of the cortical neurons after OGD damage was detected by a reactive oxygen detection kit.
# [2] = test system: primary fetal rat hippocampal neurons; assay: Growth cones and neurite growth of hippocampal neurons, immunocytochemical staining; details: vs negative control
# Experimental: (§1) (1) Primary culture of fetal rat hippocampal neurons: after a rat pregnant for 17 days was anesthetized, a fetal rat was taken out under sterile conditions; the brain of the fetal rat was taken out on ice; the hippocampus was carefully taken out under a dissecting microscope; and the blood vessel membranes were removed. 0.125% trypsin/EDTA was digested at 37° C. for 10 min, and the digestion was stopped by adding the DMEM complete medium containing 10% FBS. Cell debris were removed through centrifugal at 1000 rpm for 5 min; the DMEM complete medium was added to resuspend the cells; the cells were gently blown until a single cell suspension was formed; and the cells were inoculated at an appropriate density on a culture plate (dish) pre-coated with polylysine (PLL) and cultured at 37° C., 5% CO2 incubator. After 4 h, the cells were adhered to the wall; the DMEM complete medium was discarded and replaced with neurobasal medium containing different concentrations of ABPPk2 (the concentrations of ABPPk2 were 4 ng/ml, 20 ng/ml and 100 ng/ml); the neurobasal medium containing 10 ng/ml BDNF was used as the positive control group, and neurobasal was used as the negative control group.
# (4) The immunocytochemical staining method was used to observe the effect of ABPPk2 on the growth cones of primary fetal rat hippocampal neuron neurites. Primary hippocampal neurons were cultured according to the steps in (1), and the cells were inoculated on small round slides pre-coated with PLL at a density of 5×10^4, and then placed on a 24-well culture plate for culturing. Grouping and treatment were as described above. After 24 h, double-labeled immunocytofluorescent chemical staining of β-tubulin3 (TRITC) and F-actin (FITC) was conducted; the growth of the neurons was observed under a laser confocal microscope; and the area of the neuron growth cone and the length of filopodia were counted, as shown in FIG. 23.
# (5) The immunocytochemical staining method was used to observe the effect of ABPPk2 on the growth of primary fetal rat hippocampal neuron neurites. Primary hippocampal neurons were cultured according to the steps in (1), and the cells were inoculated on small round slides pre-coated with PLL at a density of 5×10^4, and then placed on a 24-well culture plate for culturing. Grouping and treatment were as described above. […] The length of the neurites started from the axon hillock of the cell body to the top of the axon. The number of the neurites from the neuron cell bodies refers to the neurites directly connected with the cell bodies, as shown in FIG. 24.
# (6) β-tubulin3 […]; the growth of the neurites was observed under the laser confocal microscope; the number of neurite branches and the proportion of the neurites with different lengths were counted; and the number of neurite branches refers to the number of branches of the neurites in a circle with a neuron cell body as the center and a radius of 100 μm.
# [3] = test system: primary fetal rat hippocampal neurons; assay: Growth of hippocampal neurons, label-free real time cell analysis (RTCA); details: ABPPk2 4, 20, 100 ng/ml
# Experimental: as §1, with “group. […]” for “group.”
# [4] = ABPPk2 4, 20, 100 ng/ml, 12 h as printed (24 h in method)
substance,measurement,setting,value
"Cys-Leu-Glu-Ser-Gly-Thr-Ser-Cys-Ile-Pro-Gly-Ala-Gln-His-Asn-Cys-Cys-Ser-Gly-Val-Cys-Val-Pro-Ile-Val-Thr-Ile-Phe-Tyr-Gly-Val-Cys-Tyr (CLESGTSCIPGAQHNCCSGVCVPIVTIFYGVCY; disulfide (positions not given here); not fully specified (bridges); also: three disulfide bonds, pairing not given here) [ABPPk2, 33 amino acid polypeptide isolated from the extract of Achyranthes bidentata Blume, three pairs of disulfide bonds]",ROS content,[1],can reduce the ROS content
same,area of the neuron growth cone,[2]; [4],the area of the growth cone can be significantly increased
same,length of filopodia,[2]; [4],the length of the filopodia can be increased
same,length of the neurites,[2]; ABPPk2 for 24 h,the extension of hippocampal neuronal neurites can be significantly promoted
same,number of the neurites from the neuron cell bodies,[2]; ABPPk2 for 24 h,the number of the neurites from the neuron cell bodies can be significantly increased
same,number of neurite branches,[2]; ABPPk2 for 48 h,increased significantly
same,proportion of long neurite neurons,[2]; ABPPk2 for 48 h,significantly higher than that of the negative control group
same,"growth of hippocampal neurons (cell index, RTCA)",[3],can promote the growth of the hippocampal neurons and the extension of neurites
